Laboratory results as given in publication PMC11855827, “High-Throughput Screening of Five Compound Libraries for Anthelmintic Activity and Toxicity Leads to the Discovery of Two Flavonoid Compounds” (International Journal of Molecular Sciences, 2025).
“And” between values parts separate entries of the source, which are not always exact repeats. Equal entries are not always repeated. Where two headings read alike, the source gives them in different places.

Assays:
[1] = tested on: T. circumcincta resistant strain; assay: Larval migration inhibition test (LMIT); design: species or system Teladorsagia circumcincta; details: Teladorsagia circumcincta, 24 h; resistant strain, L3, 100 μM; NE = Not Effective at 100 μM; control ivermectin 8.75 µg/mL; read-out: T. circumcincta LMIT (%)
Source text: (§1) Eggs and third instar larvae (L3) of H. contortus from a field strain and a resistant strain of T. circumcincta were used in the current trials. These parasitic forms were obtained from fresh feces of Merino and Churra sheep experimentally infected at the experimental farm of the Instituto de Ganadería de Montaña (IGM, CSIC, Gruyeros, León, Spain) and purified according to previously described methods. Briefly, eggs were taken from fresh feces, washed, centrifuged and floated with a saturated sodium chloride solution, then concentrated, counted and used in the assays. L3 were obtained by culturing feces at 25 °C for 13 d. L3 larvae were […] in 0.5% sodium hypochlorite solution for 10 min at room temperature and washed to avoid excess salt. After washing, they were concentrated and counted for use.
(§2) The viability of H. contortus larvae was assessed by the larval migration inhibition test (LMIT) according to previously described methods. Briefly, 700 µL aliquots containing 500–600 L3 were prepared for each compound. […] After a 24 h incubation at 28 °C, the compound was removed by three washes, leaving a final volume of 1400 µL. After the washes, three 400 µL aliquots were taken from each tube and transferred to a 96-well plate with a MultiScreen mesh filter. The plates were incubated for a further 24 h at 28 °C to allow the motile L3 to pass through the 20 µm mesh for counting. Then, the number of larvae present in each well was counted to determine percentage of larval migration for each compound: % Larval migration=number of larvae migrating in compound wells/number of larvae migrating in negative control×100
(§3) For the larvae, ivermectin at 8.75 µg/mL and DMSO 0.5% (v/v) were used as controls and at least 12 replicates were performed. […] EC50 were determined by plotting the percentage of viability of the L1 against the concentration of each compound, using the nonlinear fit analysis provided by the SigmaPlot® 10.1.

C. elegans [2] = assay: C. elegans motility dose-response (DR) assay; design: species or system Caenorhabditis elegans
[3] = tested on: H. contortus susceptible strain; assay: Larval migration inhibition test (LMIT); design: species or system Haemonchus contortus; details: L3, 100 μM, NE = Not Effective at 100 μM, control ivermectin 8.75 µg/mL; for inhibition at 100 µM: Haemonchus contortus, 24 h
Source text: as §1, §2, §3

[4] = tested on: T. circumcincta resistant strain; assay: Egg hatch inhibition (EHI), ovicidal effect; design: species or system Teladorsagia circumcincta; details: for EC50: egg hatching, resistant T. circumcincta, nine replicates, read-out: Ovicidal Effect EC50 (μM) T. c
C. elegans [5] = tested on: C. elegans
C. elegans [6] = assay: microbe, parasite or virus in culture; details: Caenorhabditis elegans
[7] = Spheroids toxicity assay (alamarBlue); format: cell-based; details: human; for CC50 at 3 d: HepG2 liver spheroids (3D culture)
Protocol: (§4) HepG2 cells were cultured as a monolayer under standard conditions, using DMEM/F12 medium supplemented with L-glutamine and 15 mM HEPES buffer (pH 7.2) supplemented with 10% fetal bovine serum (FBS) and antibiotic mixture (100 U/mL penicillin and 100 µg/mL streptomycin) at 37 °C and 5% CO2, according to previous published protocols.
(§5) Cells were detached from the culture flask using 0.25% trypsin solution and then centrifuged at 500× g for 6.5 min. After centrifugation, the supernatant was discarded, and the pellet was resuspended in culture medium. Cells were passed gently through a G27 needle several times and then counted. Cells were dispensed into a tissue treated Nunclon™ Sphera™ 96-well U-bottom plate (Thermo Scientific™, Waltham, MA, USA, 174925) in a final volume of 50 µL to a total of 2500 cells/well. In addition, another 50 µL of medium supplemented with Rat Tail Collagen I (Gibco™, Thermo Scientific™, Waltham, MA, USA, A1048301) was dispensed, to achieve a final concentration in a plate of 3 µg/mL for each well. The plate was centrifuged at 500× g for 1 min.
(§6) On Day 4, 100 µL of a serial dilution of the testing compounds were added to each well. For controls, 0.03% H2O2 (v/v) as positive control and 0.2% DMSO (v/v) as negative control were used.
(§7) To determine the viability of the spheroids to the testing compounds, a 20% of alamarBlue™ HS reagent (Invitrogen™, Thermo Fisher Scientific™, Waltham, MA, USA) was added on Day 7 and the results were read 24 h later using a Varioskan™ LUX (Thermo Scientific, USA, Instrument software ver. 1.00.37, Skanlt software ver. 5.0.0.42). All assays were conducted in duplicate across at least three independent experiments.

[8] = Mouse intestinal organoids' tolerance assay (alamarBlue); details: C57BL/6, mouse; for selectivity ratio at 3 d: mouse intestinal organoids (enteroids)
in vitro = details: C57BL/6, mouse
[9] = tested on: H. contortus susceptible strain; assay: Egg hatch inhibition (EHI), ovicidal effect; design: species or system Haemonchus contortus; details: for EC50: egg hatching, susceptible H. contortus, nine replicates, read-out: Ovicidal Effect EC50 (μM) H. c
C. elegans [10] = details: cited from earlier work
[11] = tested on: Staphylococcus epidermidis, Escherichia coli, and Candida albicans; design: method as in earlier work; details: in vitro; cited from earlier work
[12] = Globally Harmonized System (GHS) / ECHA; cited from earlier work
H. contortus L3-L4 = details: read-out: IC50 against H. contortus L3-L4; cited from earlier work
[13] = mice, estimated; cited from earlier work
[14] = human poisoning case; cited from earlier work
HepG2 liver spheroids = assay: Spheroids toxicity assay (alamarBlue); format: cell-based
Protocol: as §4, §5, §6, §7

[15] = tested on: mouse intestinal organoids (enteroids); details: C57BL/6, mouse
[16] = tested on: mouse intestinal organoids (enteroids); assay: Mouse intestinal organoids' tolerance assay (alamarBlue); details: read-out: Citotoxicity CC50 (μM) Ent; mouse enteroid
[17] = read-out: EC50 (μM) at 24 h, C. elegans motility, DR assay
[18] = Teladorsagia circumcincta, resistant strain, 100 μM, NE = Not Effective at 100 μM, control thiabendazole 0.1 µg/mL
[19] = 0 h, read-out: Inhibition (%) 110 μM (0 h), C. elegans L4 motility, 110 μM, 0 h, mean ± SD of four experiments
[20] = 24 h, read-out: Inhibition (%) 110 μM (24 h), C. elegans L4 motility, 110 μM, 24 h, mean ± SD of four experiments
[21] = read-out: Citotoxicity CC50 (μM) Sph
[22] = Haemonchus contortus, susceptible strain, 100 μM, NE = Not Effective at 100 μM, control thiabendazole 0.1 µg/mL
[23] = Selective Index (SI) CC50/EC50 Ent/H. c, CC50 mouse enteroid / EC50 H. contortus
[24] = Selective Index (SI) CC50/EC50 Ent/T. c, CC50 mouse enteroid / EC50 T. circumcincta
[25] = HepG2 liver spheroids, read-out: Citotoxicity CC50 (μM) Sph

SMILES: O=C(/C=C/c1ccccc1)c1ccccc1 [Chalcone]
- inhibition at 100 µM [1]: 4.7 ± 1.5%
- EC50 (C. elegans [2]; [17]): 52.4 ± 1.4 µM
- H. contortus LMIT (%) [3]: 45.7 ± 4.5%
- EC50 ([4]; Teladorsagia circumcincta): 9.8 ± 0.3 µM
- inhibition at 100 µM [4, 18]: 100%
- Percentage of motility inhibition 24 h (C. elegans [5]; 24 h, 110 µM): 86%
- inhibition at 110 µM (C. elegans [6]; [19]): 30 ± 30%
- inhibition at 110 µM (C. elegans [6]; [20]): 85 ± 15%
- CC50 at 3 d [7, 21]: > 90 µM
- selectivity ratio ([7]; pH 7.2, Selective Index (SI) CC50/EC50 Sph/H. c): > 24.3
- selectivity ratio ([7]; pH 7.2, Selective Index (SI) CC50/EC50 Sph/T. c): > 9.2
- CC50 at 3 d [8]: > 50 µM
- selectivity ratio (in vitro; Selective Index (SI) CC50/EC50 Ent/H. c): > 13.5
- selectivity ratio (in vitro; Selective Index (SI) CC50/EC50 Ent/T. c): > 5.1
- EC50 ([9]; Haemonchus contortus): 3.7 ± 0.1 µM
- inhibition at 100 µM [9, 22]: 99.4 ± 0.1%
- EC50 (C. elegans [10]; nematocidal, read-out: EC50 against C. elegans): 52 ± 9 µM

SMILES: CCCCCCCCN=c1ccn(CCCCCCCCCCn2ccc(=NCCCCCCCC)cc2)cc1 [Octenidine, reference compound]
- inhibition at 100 µM [1]: 94.8 ± 4.3%
- EC50 (C. elegans [2]; Caenorhabditis elegans, 24 h, read-out: EC50 (μM) at 24 h, C. elegans motility, DR assay, 24 h): 6.9 ± 0.5 µM
- inhibition at 100 µM [3]: 98.3 ± 0.3%
- EC50 ([4]; Teladorsagia circumcincta): 15.1 ± 4.8 µM
- inhibition at 100 µM [4, 18]: 99.5 ± 0.9%
- inhibition at 110 µM (C. elegans [6]; [19]): 84 ± 1%
- inhibition at 110 µM (C. elegans [6]; [20]): 96 ± 5%
- Concentration leading to a microbial reduction of more than 99% within 15 min [11]: below 1.5 μM
- CC50 at 3 d [7, 21]: 54.1 ± 2.8 µM
- selectivity ratio at 3 d ([7]; HepG2 liver spheroids, pH 7.2, CC50 HepG2 spheroids / EC50 H. contortus, read-out: Selective Index (SI) CC50/EC50 Sph/H. c): 25.8
- selectivity ratio at 3 d ([7]; HepG2 liver spheroids, pH 7.2, CC50 HepG2 spheroids / EC50 T. circumcincta, read-out: Selective Index (SI) CC50/EC50 Sph/T. c): 3.6
- CC50 at 3 d [8]: 14.2 ± 0.4 µM
- selectivity ratio at 3 d [8, 23]: 6.8
- selectivity ratio at 3 d [8, 24]: 0.9
- EC50 ([9]; Haemonchus contortus): 2.1 ± 0.1 µM
- inhibition at 100 µM [9, 22]: 99.5 ± 0.8%
- GHS classification [12]: category 4: acute toxicity

SMILES: CCc1nn(C)c(C(=O)NCc2ccc(Oc3ccc(C)cc3)cc2)c1Cl [Tolfenpyrad]
- EC50 (C. elegans [2]; Caenorhabditis elegans, read-out: EC50 (μM) at 24 h, C. elegans motility, DR assay): 2.4 ± 0.2 µM
- inhibition at 100 µM [3]: 9 ± 6.3%
- EC50 ([4]; Teladorsagia circumcincta): 0.2 ± 0.3 µM
- inhibition at 100 µM [4, 18]: 99.7 ± 0.5%
- IC50 (H. contortus L3-L4): 0.02 to 3 µM
- inhibition at 110 µM (C. elegans [6]; 0 h, read-out: Inhibition (%) 110 μM (0 h)): 80 ± 2%
- inhibition at 110 µM (C. elegans [6]; 24 h, read-out: Inhibition (%) 110 μM (24 h)): 98 ± 2%
- Maximum tolerated dose (MTD) [13]: 1 mg/kg
- selectivity ratio ([7]; pH 7.2, CC50 HepG2 spheroids / EC50 H. contortus, read-out: Selective Index (SI) CC50/EC50 Sph/H. c): > 33.3
- selectivity ratio ([7]; pH 7.2, CC50 HepG2 spheroids / EC50 T. circumcincta, read-out: Selective Index (SI) CC50/EC50 Sph/T. c): 250
- CC50 [7, 25]: > 50 µM
- Plasma concentration in a poisoning case [14]: 1.97 µg/mL and 5.08 µM
- CC50 (in vitro): < 1 µM
- selectivity ratio (in vitro; [23]): < 0.7
- selectivity ratio (in vitro; [24]): < 5
- EC50 ([9]; Haemonchus contortus): 1.5 ± 0.1 µM
- inhibition at 100 µM [9, 22]: 96 ± 2.9%
- EC50 (C. elegans [10]; read-out: EC50 found in the literature): 3.6 µM
- GHS classification [12]: category 4: acute toxicity

SMILES: O=C(/C=C/c1ccccc1)c1ccccc1 [Trans-chalcone]
- EC50 (C. elegans [2]; [17]): 24.9 ± 1.8 µM
- H. contortus LMIT (%) [3]: 20.3 ± 7.5%
- EC50 [4]: 4.9 ± 0.2 µM
- T. circumcincta EHI (%) ([4]; resistant strain, 100 μM, NE = Not Effective at 100 μM, control thiabendazole 0.1 µg/mL): 99.9 ± 0.2%
- Inhibition (%) 110 μM (0 h) (C. elegans [5]; 0 h, 110 μM): 16 ± 17%
- Inhibition (%) 110 μM (24 h) (C. elegans [5]; 24 h, 110 µM): 95 ± 5%
- inhibition at 110 µM (C. elegans [6]; 0 h, read-out: Percentage of motility inhibition 0 h, Table S2, C. elegans SS assay, 110 μM, 0 h, averages of 4 data points): 17%
- inhibition at 110 µM (C. elegans [6]; 24 h, read-out: Percentage of motility inhibition 24 h, Table S2, C. elegans SS assay, 110 μM, 24 h, averages of 4 data points): 96%
- CC50 (HepG2 liver spheroids; [25]): > 90 µM
- Selective Index (SI) CC50/EC50 Sph/H. c (HepG2 liver spheroids; human, pH 7.2): >29.0
- Selective Index (SI) CC50/EC50 Sph/T. c (HepG2 liver spheroids; human, pH 7.2): >18.4
- Selective Index (SI) CC50/EC50 Ent/H. c [15]: >16.1
- Selective Index (SI) CC50/EC50 Ent/T. c [15]: >10.2
- CC50 [16]: > 50 µM
- EC50 [9]: 3.1 ± 0.2 µM
- H. contortus EHI (%) ([9]; susceptible strain, 100 μM, NE = Not Effective at 100 μM, control thiabendazole 0.1 µg/mL): 99.5 ± 0.7%
